molecular target: T1, Gonadotropin-releasing hormone receptor (Homo sapiens, UniProt P30968); test: Ability to inhibit des-Gly10[125I]Tyr5,DLeu6,NMeLeu7, Pro9-NEt]-GnRH radioligand binding to the cloned human gonadotropin-releasing hormone receptor stably expressed in HEK293 cells; format: cell-based
T1 sequence (P30968 whole entry): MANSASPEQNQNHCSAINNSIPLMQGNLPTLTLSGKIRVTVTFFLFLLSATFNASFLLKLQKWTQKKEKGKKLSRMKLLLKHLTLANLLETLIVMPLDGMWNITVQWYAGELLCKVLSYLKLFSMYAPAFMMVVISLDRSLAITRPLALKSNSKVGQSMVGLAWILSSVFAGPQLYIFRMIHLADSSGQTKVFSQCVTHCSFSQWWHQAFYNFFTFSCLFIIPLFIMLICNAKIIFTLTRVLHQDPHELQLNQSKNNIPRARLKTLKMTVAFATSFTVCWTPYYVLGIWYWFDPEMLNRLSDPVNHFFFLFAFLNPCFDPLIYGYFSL

| Ki | SMILES |
| --- | --- |
| 250 nM | COc1cccc(-c2c(C)n(Cc3c(F)cccc3F)c(=O)n(C[C@H](C)N(C)Cc3ccccc3)c2=O)c1 |
| 53 nM | COc1cccc(-c2c(C)n(Cc3c(F)cccc3F)c(=O)n(CC(C)NCc3ccccn3)c2=O)c1 (centres undefined) |
| 330 nM | COc1cccc(-c2c(C)n(Cc3c(F)cccc3F)c(=O)n(C[C@@H](C)N(C)Cc3ccccc3)c2=O)c1 |
| 130 nM | COc1cccc(-c2c(C)n(Cc3c(F)cccc3F)c(=O)n(C[C@@H](C)NCc3ccccc3)c2=O)c1 |
| 460 nM | COc1cccc(-c2c(C)n(Cc3c(F)cccc3F)c(=O)n(C[C@H](C)NCc3ccccn3)c2=O)c1 |
| 15 nM | COc1cccc(-c2c(C)n(Cc3c(F)cccc3F)c(=O)n(C[C@@H](C)NCc3ccccn3)c2=O)c1 |
| 140 nM | COc1cccc(-c2c(C)n(Cc3c(F)cccc3F)c(=O)n(C[C@H](C)NCc3ccccc3)c2=O)c1 |
| 280 nM | COc1cccc(-c2c(C)n(Cc3c(F)cccc3F)c(=O)n(CC(C)NCc3ccccc3)c2=O)c1 (centres undefined) |
| 310 nM | COc1cccc(-c2c(C)n(Cc3c(F)cccc3F)c(=O)n(CC(C)N(C)Cc3ccccc3)c2=O)c1 (centres undefined) |

The remaining lines, values behind:

| SMILES | Ki |
| --- | --- |
| COc1cccc(-c2c(C)n(Cc3c(F)cccc3F)c(=O)n(C[C@H](C)N(C)CCc3ccccn3)c2=O)c1 | 890 nM |
| COc1cccc(-c2c(C)n(Cc3c(F)cccc3F)c(=O)n(CC(C)N(C)CCc3ccccn3)c2=O)c1 (centres undefined) | 12 nM |
| COc1cccc(-c2c(C)n(Cc3c(F)cccc3F)c(=O)n(CCN(C)Cc3ccccn3)c2=O)c1 | 96 nM |
| COc1cccc(-c2c(C)n(Cc3c(F)cccc3F)c(=O)n(CC(C)N(C)CCCOCC(C)C)c2=O)c1 (centres undefined) | 240 nM |
| COc1cccc(-c2c(C)n(Cc3c(F)cccc3F)c(=O)n(C[C@@H](C)NCCc3ccccn3)c2=O)c1 | 79 nM |
| COc1cccc(-c2c(C)n(Cc3c(F)cccc3F)c(=O)n(C[C@H](C)NCCc3ccccn3)c2=O)c1 | 780 nM |
| COc1cccc(-c2c(C)n(Cc3c(F)cccc3F)c(=O)n(C[C@@H](C)N(C)CCc3ccccn3)c2=O)c1 | 5.2 nM |
| COc1cccc(-c2c(C)n(Cc3c(F)cccc3F)c(=O)n(C[C@H](C)N)c2=O)c1 | 18000 nM |
| COc1cccc(-c2c(C)n(Cc3c(F)cccc3F)c(=O)n(C[C@H]3CCCN3Cc3ccccn3)c2=O)c1 | 32 nM |
| COc1cccc(-c2c(C)n(Cc3c(F)cccc3F)c(=O)n(CC(C)NCCCOCC(C)C)c2=O)c1 (centres undefined) | 81 nM |
| COc1cccc(-c2c(C)n(Cc3c(F)cccc3F)c(=O)n(CCNCc3ccccn3)c2=O)c1 | 550 nM |
| COc1cccc(-c2c(C)n(Cc3c(F)cccc3F)c(=O)n(C[C@@H](C)N)c2=O)c1 | 2500 nM |
| COc1cccc(-c2c(C)n(Cc3c(F)cccc3F)c(=O)n(CC(C)NCCc3ccccn3)c2=O)c1 (centres undefined) | 170 nM |
| COc1cccc(-c2c(C)n(Cc3c(F)cccc3F)c(=O)n(C[C@@H]3CCCN3Cc3ccccn3)c2=O)c1 | 210 nM |

test system: not listed separately; test: Inhibition of GnRH-stimulated [Ca2+] influx; format: functional

| IC50 | SMILES |
| --- | --- |
| 2.5 nM | COc1cccc(-c2c(C)n(Cc3c(F)cccc3F)c(=O)n(C[C@@H](C)N(C)Cc3ccccn3)c2=O)c1 |
